Source: ChEMBL document CHEMBL3885881, “DrugMatrix”

Organism: Rattus norvegicus
Experiment: DrugMatrix - Regimen: Daily Repeat
Type: toxicity, organism-based, Sprague-Dawley
Design: regimen Daily Repeat, gender Male, age 6-8 weeks
Settings: in vivo, po, route oral GAVAGE, vehicle .5 % CMC; for ABSOLUTE BASOPHIL / ABSOLUTE EOSINOPHIL / ABSOLUTE LYMPHOCYTE / ABSOLUTE MONOCYTE / ABSOLUTE SEGMENTED NEUTROPHIL / BASOPHIL / EOSINOPHIL / ERYTHROCYTE COUNT / HEMATOCRIT / HEMOGLOBIN / LEUKOCYTE COUNT / LYMPHOCYTE / MEAN CORPUSCULAR HEMOGLOBIN / MEAN CORPUSCULAR HEMOGLOBIN CONCENTRATION / MEAN CORPUSCULAR VOLUME / MONOCYTE / NEUTROPHIL / NUCLEATED RED BLOOD CELLS / PLATELET COUNT: tissue Blood; for ALANINE AMINOTRANSFERASE / ALBUMIN / ALKALINE PHOSPHATASE / ASPARTATE AMINOTRANSFERASE / BLOOD UREA NITROGEN / CARBON DIOXIDE / CHLORIDE / CHOLESTEROL / CREATINE PHOSPHOKINASE / CREATININE / GLUCOSE / LIPASE / PHOSPHORUS / POTASSIUM / SODIUM / TOTAL BILIRUBIN / TOTAL PROTEIN / URIC ACID: tissue Plasma
[1] = 0.3 mg/kg, 72 h, dose level High, time 3 day
[2] = 0.3 mg/kg, 120 h, dose level High, time 5 day
[3] = […], 72 h, dose 0.014 mg/Kg, dose level Low, time 3 day
[4] = […], 120 h, dose 0.014 mg/Kg, dose level Low, time 5 day

## COc1cc2c(c3oc(=O)c4c(c13)CCC4=O)[C@@H]1C=CO[C@@H]1O2 [AFLATOXIN]
[1]
  ABSOLUTE BASOPHIL: 0 CELLS/uL
  ABSOLUTE EOSINOPHIL: 214.67 CELLS/uL
  ABSOLUTE LYMPHOCYTE: 14943 CELLS/uL
  ABSOLUTE MONOCYTE: 279 CELLS/uL
  ABSOLUTE SEGMENTED NEUTROPHIL: 1230 CELLS/uL
  BASOPHIL: 0%
  EOSINOPHIL: 1.33%
  ERYTHROCYTE COUNT: 5.62 x10E6/uL
  HEMATOCRIT: 35.63%
  HEMOGLOBIN: 13.67 G/DL
  LEUKOCYTE COUNT: 16.67 x10E3/uL
  LYMPHOCYTE: 89.67%
  MEAN CORPUSCULAR HEMOGLOBIN: 24.33 pg
  MEAN CORPUSCULAR HEMOGLOBIN CONCENTRATION: 38.33 G/DL
  MEAN CORPUSCULAR VOLUME: 63.4 fL
  MONOCYTE: 1.67%
  NEUTROPHIL: 7.33%
  NUCLEATED RED BLOOD CELLS: 0.33 /100WBC
  PLATELET COUNT: 1408.33 x10E3/uL
  ALANINE AMINOTRANSFERASE: 50 u/L
  ALBUMIN: 4.07 G/DL
  ALKALINE PHOSPHATASE: 424 u/L
  ASPARTATE AMINOTRANSFERASE: 109.33 u/L
  BLOOD UREA NITROGEN: 15.67 mg/dL
  CARBON DIOXIDE: 24.33 mmol/L
  CHLORIDE: 104 MEQ/L
  CHOLESTEROL: 59.67 mg/dL
  CREATINE PHOSPHOKINASE: 568.33 u/L
  CREATININE: 0.14 mg/dL
  GLUCOSE: 152.67 mg/dL
  LIPASE: 8.67 u/L
  PHOSPHORUS: 13 mg/dL
  POTASSIUM: 6.95 MEQ/L
  SODIUM: 144.7 MEQ/L
  TOTAL BILIRUBIN: 0.23 mg/dL
  TOTAL PROTEIN: 5.27 G/DL
  URIC ACID: 1.73 mg/dL
[2]
  ABSOLUTE BASOPHIL: 0 CELLS/uL
  ABSOLUTE EOSINOPHIL: 83.33 CELLS/uL
  ABSOLUTE LYMPHOCYTE: 13811.33 CELLS/uL
  ABSOLUTE MONOCYTE: 454 CELLS/uL
  ABSOLUTE SEGMENTED NEUTROPHIL: 784.67 CELLS/uL
  BASOPHIL: 0%
  EOSINOPHIL: 0.67%
  ERYTHROCYTE COUNT: 5.95 x10E6/uL
  HEMATOCRIT: 36.77%
  HEMOGLOBIN: 14.07 G/DL
  LEUKOCYTE COUNT: 15.13 x10E3/uL
  LYMPHOCYTE: 91%
  MEAN CORPUSCULAR HEMOGLOBIN: 23.63 pg
  MEAN CORPUSCULAR HEMOGLOBIN CONCENTRATION: 38.23 G/DL
  MEAN CORPUSCULAR VOLUME: 61.8 fL
  MONOCYTE: 3%
  NEUTROPHIL: 5.33%
  NUCLEATED RED BLOOD CELLS: 0 /100WBC
  PLATELET COUNT: 1425.67 x10E3/uL
  ALANINE AMINOTRANSFERASE: 64.67 u/L
  ALBUMIN: 4.1 G/DL
  ALKALINE PHOSPHATASE: 290.33 u/L
  ASPARTATE AMINOTRANSFERASE: 102.33 u/L
  BLOOD UREA NITROGEN: 17.33 mg/dL
  CARBON DIOXIDE: 27 mmol/L
  CHLORIDE: 105.5 MEQ/L
  CHOLESTEROL: 48 mg/dL
  CREATINE PHOSPHOKINASE: 345.67 u/L
  CREATININE: 0.19 mg/dL
  GLUCOSE: 158.67 mg/dL
  LIPASE: 9 u/L
  PHOSPHORUS: 12.27 mg/dL
  POTASSIUM: 5.92 MEQ/L
  SODIUM: 147.5 MEQ/L
  TOTAL BILIRUBIN: 0.13 mg/dL
  TOTAL PROTEIN: 5.53 G/DL
  URIC ACID: 1.93 mg/dL
[3]
  ABSOLUTE BASOPHIL: 0 CELLS/uL
  ABSOLUTE EOSINOPHIL: 94 CELLS/uL
  ABSOLUTE LYMPHOCYTE: 13843.33 CELLS/uL
  ABSOLUTE MONOCYTE: 261.67 CELLS/uL
  ABSOLUTE SEGMENTED NEUTROPHIL: 1234.33 CELLS/uL
  BASOPHIL: 0%
  EOSINOPHIL: 0.67%
  ERYTHROCYTE COUNT: 5.21 x10E6/uL
  HEMATOCRIT: 33%
  HEMOGLOBIN: 12.47 G/DL
  LEUKOCYTE COUNT: 15.43 x10E3/uL
  LYMPHOCYTE: 89.67%
  MEAN CORPUSCULAR HEMOGLOBIN: 23.93 pg
  MEAN CORPUSCULAR HEMOGLOBIN CONCENTRATION: 37.8 G/DL
  MEAN CORPUSCULAR VOLUME: 63.23 fL
  MONOCYTE: 1.67%
  NEUTROPHIL: 8%
  NUCLEATED RED BLOOD CELLS: 0 /100WBC
  PLATELET COUNT: 1257 x10E3/uL
  ALANINE AMINOTRANSFERASE: 47.67 u/L
  ALBUMIN: 4.1 G/DL
  ALKALINE PHOSPHATASE: 302.67 u/L
  ASPARTATE AMINOTRANSFERASE: 99 u/L
  BLOOD UREA NITROGEN: 16.33 mg/dL
  CARBON DIOXIDE: 25.33 mmol/L
  CHLORIDE: 103.33 MEQ/L
  CHOLESTEROL: 64.67 mg/dL
  CREATINE PHOSPHOKINASE: 408 u/L
  CREATININE: 0.21 mg/dL
  GLUCOSE: 142.33 mg/dL
  LIPASE: 9 u/L
  PHOSPHORUS: 12.17 mg/dL
  POTASSIUM: 6.42 MEQ/L
  SODIUM: 143.57 MEQ/L
  TOTAL BILIRUBIN: 0.2 mg/dL
  TOTAL PROTEIN: 5.47 G/DL
  URIC ACID: 1.47 mg/dL
[4]
  ABSOLUTE BASOPHIL: 0 CELLS/uL
  ABSOLUTE EOSINOPHIL: 37.67 CELLS/uL
  ABSOLUTE LYMPHOCYTE: 14048 CELLS/uL
  ABSOLUTE MONOCYTE: 191.67 CELLS/uL
  ABSOLUTE SEGMENTED NEUTROPHIL: 1122.67 CELLS/uL
  BASOPHIL: 0%
  EOSINOPHIL: 0.33%
  ERYTHROCYTE COUNT: 5.76 x10E6/uL
  HEMATOCRIT: 35.83%
  HEMOGLOBIN: 13.37 G/DL
  LEUKOCYTE COUNT: 15.4 x10E3/uL
  LYMPHOCYTE: 91%
  MEAN CORPUSCULAR HEMOGLOBIN: 23.2 pg
  MEAN CORPUSCULAR HEMOGLOBIN CONCENTRATION: 37.3 G/DL
  MEAN CORPUSCULAR VOLUME: 62.2 fL
  MONOCYTE: 1.33%
  NEUTROPHIL: 7.33%
  NUCLEATED RED BLOOD CELLS: 1.33 /100WBC
  PLATELET COUNT: 1353 x10E3/uL
  ALANINE AMINOTRANSFERASE: 48.33 u/L
  ALBUMIN: 4.3 G/DL
  ALKALINE PHOSPHATASE: 352.33 u/L
  ASPARTATE AMINOTRANSFERASE: 90.33 u/L
  BLOOD UREA NITROGEN: 19.67 mg/dL
  CARBON DIOXIDE: 26.33 mmol/L
  CHLORIDE: 105.67 MEQ/L
  CHOLESTEROL: 63.33 mg/dL
  CREATINE PHOSPHOKINASE: 486.67 u/L
  CREATININE: 0.21 mg/dL
  GLUCOSE: 164.67 mg/dL
  LIPASE: 8.33 u/L
  PHOSPHORUS: 12.6 mg/dL
  POTASSIUM: 6.34 MEQ/L
  SODIUM: 146.9 MEQ/L
  TOTAL BILIRUBIN: 0.2 mg/dL
  TOTAL PROTEIN: 6.03 G/DL
  URIC ACID: 1.93 mg/dL
